According to publication PMC12397248, “Proanthocyanidins inhibit CYP1B1 through mixed-type kinetics and stable binding in molecular dynamics simulations” (Scientific Reports, 2025):

T1: Cytochrome P450 1B1 (CYP1B1) (Homo sapiens, UniProt Q16678)
T1 sequence (Q16678 1-543): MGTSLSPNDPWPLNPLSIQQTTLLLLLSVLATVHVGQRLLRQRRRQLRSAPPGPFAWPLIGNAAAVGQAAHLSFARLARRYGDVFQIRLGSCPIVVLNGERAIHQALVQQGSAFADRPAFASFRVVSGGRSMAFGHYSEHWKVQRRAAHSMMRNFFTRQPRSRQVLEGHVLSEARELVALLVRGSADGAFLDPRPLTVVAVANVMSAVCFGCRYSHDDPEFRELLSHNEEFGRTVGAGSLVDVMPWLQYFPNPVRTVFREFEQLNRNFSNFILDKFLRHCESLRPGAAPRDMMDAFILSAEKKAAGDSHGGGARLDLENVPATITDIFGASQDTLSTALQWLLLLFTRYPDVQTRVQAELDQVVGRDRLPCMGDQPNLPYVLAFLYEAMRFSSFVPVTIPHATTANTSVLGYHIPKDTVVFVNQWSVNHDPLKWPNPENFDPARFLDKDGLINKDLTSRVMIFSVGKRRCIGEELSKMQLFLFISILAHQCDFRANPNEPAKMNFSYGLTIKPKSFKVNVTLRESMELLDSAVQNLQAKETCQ


Assays:
[1] = target: T1, Cytochrome P450 1B1 (CYP1B1); assay: recombinant human CYP1B1 ethoxyresorufin O-deethylation fluorescence assay; Michaelis-Menten and Lineweaver-Burk kinetics; format: biochemical
[2] = substrate: CCOc1ccc2nc3ccc(=O)cc-3oc2c1; assay: Michaelis-Menten kinetics of O-deethylation by recombinant CYP1B1 (Km); format: biochemical, Homo sapiens; details: heme; NADPH

Molecule	IC50 [1]	Km [2]
proanthocyanidin [PA]	2.53 ± 0.01 µM	–
Cytochrome P450 1B1 (CYP1B1) (Homo sapiens) (protein) MGTSLSPNDPWPLNPLSIQQTTLLLLLSVLATVHVGQRLLRQRRRQLRSAPPGPFAWPLIGNAAAVGQAAHLSFARLARRYGDVFQIRLGSCPIVVLNGERAIHQALVQQGSAFADRPAFASFRVVSGGRSMAFGHYSEHWKVQRRAAHSMMRNFFTRQPRSRQVLEGHVLSEARELVALLVRGSADGAFLDPRPLTVVAVANVMSAVCFGCRYSHDDPEFRELLSHNEEFGRTVGAGSLVDVMPWLQYFPNPVRTVFREFEQLNRNFSNFILDKFLRHCESLRPGAAPRDMMDAFILSAEKKAAGDSHGGGARLDLENVPATITDIFGASQDTLSTALQWLLLLFTRYPDVQTRVQAELDQVVGRDRLPCMGDQPNLPYVLAFLYEAMRFSSFVPVTIPHATTANTSVLGYHIPKDTVVFVNQWSVNHDPLKWPNPENFDPARFLDKDGLINKDLTSRVMIFSVGKRRCIGEELSKMQLFLFISILAHQCDFRANPNEPAKMNFSYGLTIKPKSFKVNVTLRESMELLDSAVQNLQAKETCQ	–	236 ± 74 µM
